# According to patent US6096874A (Board of Regents, the University of Texas System, priority 1995, dated 2000):
# Read-outs that look alike come from different tables or passages of the source.
# Assay: in vivo
# Design: species or system rat
# Conditions: for tissue uptake at 1 h / tissue uptake at 3 h / tissue uptake at 6 h / tissue uptake at 24 h / Tissue uptake findings (in words): rat; for tissue uptake at 1 h / tissue uptake at 3 h / tissue uptake at 6 h / tissue uptake at 24 h: iv; for Tissue uptake findings (in words): in vivo
# Experimental: In animal tissue distribution studies, each rate was given 8.9 μCi (0.15 ml) tracer intravenously. The tumor-bearing rats were killed at 1, 3, 6 and 24 h. […] The amount of DES given should occupy tumor estrogen receptor sites. The methods for inducing tumors in rats was as described by those of skill in the art (radiology). […]
# Female Fisher 344 rats (250-275 g) (Harlan, Inc., Indianapolis, Ind.) were inoculated with mammary tumor cells using the 13762 tumor cell line (s.c. 10^5 cells/rat). After 14 days, a tumor size of 1-2 cm was observed. For ^131 I-ITX studies, five groups of rats (N=3/group) were anesthetized with ketamine (10-15 mg/rat). The trans ^131 I-ITX was given to four of the five groups (8.9 μCi/rat, i.v.) and biodistribution was studied at 1, 3, 6 and 24 h intervals. In blocking studies, the fifth group of rats was given diethylstilbestrol (DES) (1.2 mg/rat) for 1 h, followed by 8.9 μCi of ^131 I-ITX; biodistribution was studied 6 h later. The tissues were collected at different time intervals. The tissues were weighted and counted for radioactivity. The percent of injected dose per gram of tissue weight was calculated. […]
# [1] = 6 h, pretreated with DES (blocking)
compound,measurement,setting,value
CCN(CC)CCOc1ccc(/C(=C(/CCC[131I])c2ccccc2)c2ccccc2)cc1 [^131 I-IODOTAMOXIFEN],Tumor uptake,"1 h, 60 min",0.181 % injected dose/gram tissue
same,Tumor uptake,"3 h, 180 min",0.229 % injected dose/gram tissue
same,Blood uptake,[1],0.072 % injected dose/gram tissue
same,Kidney uptake,[1],1.296 % injected dose/gram tissue
same,Liver uptake,[1],4.682 % injected dose/gram tissue
same,Lung uptake,[1],2.173 % injected dose/gram tissue
same,Muscle uptake,[1],0.172 % injected dose/gram tissue
same,Spleen uptake,[1],2.366 % injected dose/gram tissue
same,Thyroid uptake,[1],0.640 % injected dose/gram tissue
same,Uterus uptake,[1],0.325 % injected dose/gram tissue
same,Tumor uptake,"6 h, pretreated with DES (blocking), 360 min",0.217 % injected dose/gram tissue
same,Tumor uptake,"6 h, pretreated with DES (blocking), listed as 131 I-TX, 360 min",0.22±0.059 % injected dose/gram tissue
same,Tumor uptake,"6 h, pretreated with DES (blocking), listed as [^131 I]ITX, 360 min",0.22±0.044 % injected dose/gram tissue
same,Tumor uptake,"6 h, 360 min",0.261 % injected dose/gram tissue
same,Tumor uptake,"24 h, 1440 min",0.267 % injected dose/gram tissue
same,Tumor uptake,"24 h, listed as 131 I-ITX, 1440 min",0.267±0.0160 % injected dose/gram tissue
same,tissue uptake at 1 h,"blood, 1 h, read-out: Blood uptake",0.158 %ID/g
same,tissue uptake at 3 h,"blood, 3 h, read-out: Blood uptake",0.121 %ID/g
same,tissue uptake at 6 h,"blood, 6 h, read-out: Blood uptake",0.124 %ID/g
same,tissue uptake at 24 h,"blood, 24 h, read-out: Blood uptake",0.001 %ID/g
same,Tissue uptake findings (in words),,both tumor and uterus uptake can be blocked
same,Tissue uptake findings (in words),listed as 131 I-ITX,both tumor and uterus value were decreased in 6 h blocking group
same,tissue uptake at 1 h,"kidney, 1 h, read-out: Kidney uptake",1.88 %ID/g
same,tissue uptake at 3 h,"kidney, 3 h, read-out: Kidney uptake",2.37 %ID/g
same,tissue uptake at 6 h,"kidney, 6 h, read-out: Kidney uptake",1.36 %ID/g
same,tissue uptake at 24 h,"kidney, 24 h, read-out: Kidney uptake",0.381 %ID/g
same,tissue uptake at 1 h,"liver, 1 h, read-out: Liver uptake",5.6 %ID/g
same,tissue uptake at 3 h,"liver, 3 h, read-out: Liver uptake",6 %ID/g
same,tissue uptake at 6 h,"liver, 6 h, read-out: Liver uptake",4.63 %ID/g
same,tissue uptake at 24 h,"liver, 24 h, read-out: Liver uptake",2.47 %ID/g
same,tissue uptake at 1 h,"lung, 1 h, read-out: Lung uptake",3.95 %ID/g
same,tissue uptake at 3 h,"lung, 3 h, read-out: Lung uptake",3.71 %ID/g
same,tissue uptake at 6 h,"lung, 6 h, read-out: Lung uptake",2.84 %ID/g
same,tissue uptake at 24 h,"lung, 24 h, read-out: Lung uptake",0.512 %ID/g
same,tissue uptake at 1 h,"muscle, 1 h, read-out: Muscle uptake",0.201 %ID/g
same,tissue uptake at 3 h,"muscle, 3 h, read-out: Muscle uptake",0.253 %ID/g
same,tissue uptake at 6 h,"muscle, 6 h, read-out: Muscle uptake",0.204 %ID/g
same,tissue uptake at 24 h,"muscle, 24 h, read-out: Muscle uptake",0.005 %ID/g
same,tissue uptake at 1 h,"spleen, 1 h, read-out: Spleen uptake",3.38 %ID/g
same,tissue uptake at 3 h,"spleen, 3 h, read-out: Spleen uptake",3.31 %ID/g
same,tissue uptake at 6 h,"spleen, 6 h, read-out: Spleen uptake",2.33 %ID/g
same,tissue uptake at 24 h,"spleen, 24 h, read-out: Spleen uptake",0.688 %ID/g
same,tissue uptake at 1 h,"thyroid, 1 h, read-out: Thyroid uptake",0.393 %ID/g
same,tissue uptake at 3 h,"thyroid, 3 h, read-out: Thyroid uptake",0.748 %ID/g
same,tissue uptake at 6 h,"thyroid, 6 h, read-out: Thyroid uptake",0.776 %ID/g
same,tissue uptake at 24 h,"thyroid, 24 h, read-out: Thyroid uptake",0.493 %ID/g
same,tissue uptake at 1 h,"tumor, 1 h, read-out: Tumor uptake",0.18 ± 0.062 %ID/g
same,tissue uptake at 3 h,"tumor, 3 h, read-out: Tumor uptake",0.23 ± 0.152 %ID/g
same,tissue uptake at 6 h,"tumor, 6 h, read-out: Tumor uptake",0.26 ± 0.166 %ID/g
same,tissue uptake at 24 h,"tumor, 24 h, read-out: Tumor uptake",0.27 ± 0.016 %ID/g
same,tissue uptake at 1 h,"uterus, 1 h, read-out: Uterus uptake",0.414 %ID/g
same,tissue uptake at 3 h,"uterus, 3 h, read-out: Uterus uptake",0.546 %ID/g
same,tissue uptake at 6 h,"uterus, 6 h, read-out: Uterus uptake",0.408 %ID/g
same,tissue uptake at 24 h,"uterus, 24 h, read-out: Uterus uptake",0.151 %ID/g
